Data from the supplement of paper PMC10307832.

How the values were obtained:
Dactolisib = compound: Cn1c(=O)n(-c2ccc(C(C)(C)C#N)cc2)c2c3cc(-c4cnc5ccccc5c4)ccc3ncc21 [Dactolisib]; assay: relative viability (nuclei count vs DMSO), 5 days (fraction); higher = more cells survive
Summary of the method: (§1)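 Lung cancer cell lines were seeded into 1536-well plates, kept overnight at 37 °C and pinned with five library-drug doses (not always all listed) spaced by √10. After 5 days, nuclei were Hoechst-stained, imaged at 4× and counted with MetaXpress. Viability is treated-well nuclei over vehicle-well nuclei, taken as a median across plates. Plates needed control CV below 25% and at least one doubling.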

AZ505 = compound: C1CCC(CC1)N(CCNCCC2=C3C(=C(C=C2)O)NC(=O)CO3)C(=O)CCNCCC4=CC(=C(C=C4)Cl)Cl [AZ505]; assay: as above
Summary of the method: as §1

| Cell Line | relative viability (Dactolisib; 0.002 µM) | relative viability (Dactolisib; 0.006325 µM) | relative viability (Dactolisib; 0.02 µM) | relative viability (Dactolisib; 0.06325 µM) | relative viability (Dactolisib; 0.2 µM) | relative viability (AZ505; 0.08 µM) | relative viability (AZ505; 0.253 µM) | relative viability (AZ505; 0.8 µM) | relative viability (AZ505; 2.53 µM) | relative viability (AZ505; 8 µM) |
| --- | --- | --- | --- | --- | --- | --- | --- | --- | --- | --- |
| 201T | 1.02 | 1.01 | 0.992 | 0.863 | 0.636 | 0.962 | 0.998 | 0.98 | 0.974 | 1.01 |
| A549 | 0.995 | 0.871 | 0.729 | 0.225 | 0.182 | 0.864 | 0.985 | 0.93 | 0.968 | 1.04 |
| A-427 | 1.1 | 0.908 | 0.936 | 0.572 | 0.586 | 0.932 | 0.958 | 0.886 | 1.08 | 0.99 |
| ABC-1 | 0.954 | 0.921 | 0.868 | 0.719 | 0.458 | 0.899 | 0.963 | 0.975 | 0.985 | 1.05 |
| BEN | 1.02 | 0.883 | 0.81 | 0.536 | 0.366 | 0.873 | 0.97 | 0.905 | 1.1 | 1.05 |
| CAL-12T | 1.01 | 0.976 | 0.721 | 0.342 | 0.323 | 0.909 | 0.941 | 0.967 | 0.956 | 1.03 |
| COR-L23 | 1.15 | 1.06 | 0.911 | 0.27 | 0.249 | 0.947 | 0.97 | 0.893 | 0.933 | 0.95 |
| COR-L 105 | 0.959 | 0.898 | 0.781 | 0.363 | 0.425 | 0.89 | 0.918 | 0.887 | 0.851 | 1.01 |
| Calu-6 | 1.06 | 0.989 | 1.05 | 0.622 | 0.473 | 0.94 | 1.01 | 0.96 | 0.993 | 1.01 |
| ChaGo-K-1 | 0.963 | 0.964 | 0.945 | 0.909 | 0.868 | 0.959 | 1 | 1.05 | 1.01 | 1.12 |
| EBC-1 | 1.05 | 0.883 | 0.724 | 0.236 | 0.244 | 0.967 | 0.929 | 1.03 | 1.01 | 0.924 |
| EKVX | 1.02 | 0.971 | 0.858 | 0.691 | 0.417 | 0.957 | 0.961 | 0.952 | 0.89 | 1.03 |
| EMC-BAC-2 | 1.07 | 0.924 | 0.88 | 0.636 | 0.494 | 0.948 | 0.789 | 0.923 | 1.03 | 0.987 |
| EPLC-272H | 1.01 | 0.766 | 0.76 | 0.569 | 0.403 | 0.817 | 0.812 | 0.755 | 0.849 | 0.92 |
| H3255 | 1.09 | 0.908 | 0.91 | 0.784 | 0.627 | 0.901 | 1 | 1.01 | 1.06 | 1.03 |
| HARA | 1.08 | 0.982 | 0.928 | 0.601 | 0.369 | 0.792 | 0.758 | 0.915 | 0.873 | 0.847 |
| HCC-15 | 0.98 | 0.974 | 0.985 | 0.635 | 0.422 | 0.938 | 0.963 | 1.03 | 0.956 | 1.1 |
| HCC-44 | 0.979 | 1.01 | 1.03 | 0.688 | 0.929 | 0.951 | 0.945 | 0.934 | 1.01 | 1.02 |
| HCC-78 | 1.06 | 0.909 | 0.829 | 0.657 | 0.387 | 0.794 | 0.775 | 0.861 | 0.937 | 0.978 |
| HCC-366 | 0.975 | 1.04 | 1.05 | 0.734 | 0.569 | 0.982 | 0.956 | 0.99 | 0.897 | 1.01 |
| HCC-827 | 1.06 | 1.05 | 0.955 | 1.07 | 1.03 | 0.992 | 1.03 | 0.982 | 1.02 | 1.08 |
| HOP-62 | 1.05 | 1.03 | 1.02 | 0.595 | 0.647 | 0.892 | 1.09 | 1.14 | 0.995 | 1.08 |
| IA-LM | 1 | 0.837 | 0.701 | 0.273 | 0.129 | 0.931 | 0.914 | 0.898 | 0.953 | 1.13 |
| LC-2-ad | 1.03 | 0.959 | 1.06 | 0.823 | 0.58 | 0.902 | 0.922 | 1.01 | 1.07 | 0.998 |
| LCLC-97TM1 | 1.01 | 1.02 | 0.9 | 0.802 | 0.388 | 0.893 | 0.838 | 0.897 | 0.759 | 1.06 |
| LCLC-103H | 1.03 | 0.95 | 0.964 | 0.785 | 0.624 | 0.989 | 0.903 | 0.925 | 1.02 | 0.896 |
| LK-2 | 0.905 | 0.877 | 0.846 | 0.433 | 0.253 | 0.974 | 1.17 | 0.941 | 1.09 | 1.11 |
| LOU-NH91 | 0.994 | 0.997 | 0.885 | 0.613 | 0.623 | 0.9 | 0.937 | 0.967 | 0.983 | 1.01 |
| LU99A | 0.93 | 0.904 | 0.766 | 0.429 | 0.31 | 0.782 | 1.02 | 0.979 | 0.813 | 0.944 |
